Measurements as given in patent US10202361B2, “Pyridazinones as herbicides” (E I DU PONT DE NEMOURS AND COMPANY, priority 2014, dated 2019).
Like-named read-outs stand apart in the source and are kept apart here.

What was measured:
Assay in all cases: Test C pre-/postemergence greenhouse herbicide test
Assay type in all cases: in vivo
[1] = system: waterhemp (common waterhemp, Amaranthus rudis); conditions: Waterhemp
Outline: (§1)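 Seeds in loam–sand blend sprayed preemergence, and 1- to 4-leaf plants (2–18 cm) sprayed postemergence, with compounds in non-phytotoxic solvent plus surfactant. Visual rating versus controls after 13–15 d in greenhouse, 0 (no effect) to 100 (complete control).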

[2] = system: ryegrass, Italian (Italian ryegrass, Lolium multiflorum); conditions: Lolium multiflorum, Ryegrass, Italian, read-out: Plant response rating; for pest or weed control at 31 g/ha: 31 g ai/ha; for pest or weed control at 62 g/ha: 62 g ai/ha; for pest or weed control at 125 g/ha: 125 g ai/ha; for pest or weed control at 250 g/ha: 250 g ai/ha
Outline: as §1

[3] = system: morningglory (Ipomoea coccinea); conditions: Morningglory
Outline: as §1

[4] = system: velvetleaf (Abutilon theophrasti); conditions: Abutilon theophrasti, Velvetleaf, read-out: Plant response rating; for pest or weed control at 62 g/ha: 62 g ai/ha; for pest or weed control at 125 g/ha: 125 g ai/ha; for pest or weed control at 250 g/ha: 250 g ai/ha
Outline: as §1

[5] = system: nutsedge, yellow (yellow nutsedge, Cyperus esculentus); conditions: Cyperus, Nutsedge, Yellow, read-out: Plant response rating; for pest or weed control at 31 g/ha: 31 g ai/ha; for pest or weed control at 62 g/ha: 62 g ai/ha; for pest or weed control at 125 g/ha: 125 g ai/ha
Outline: as §1

[6] = system: kochia (Kochia scoparia); conditions: Postemergence
Outline: as §1

[7] = system: pigweed (Amaranthus retroflexus); conditions: Amaranthus retroflexus, Pigweed, read-out: Plant response rating; for pest or weed control at 62 g/ha: 62 g ai/ha; for pest or weed control at 125 g/ha: 125 g ai/ha; for pest or weed control at 250 g/ha: 250 g ai/ha
Outline: as §1

[8] = system: foxtail, giant (giant foxtail, Setaria faberii); conditions: Setaria faberi, Foxtail, Giant, read-out: Plant response rating; for pest or weed control at 31 g/ha: 31 g ai/ha; for pest or weed control at 62 g/ha: 62 g ai/ha; for pest or weed control at 125 g/ha: 125 g ai/ha; for pest or weed control at 250 g/ha: 250 g ai/ha
Outline: as §1

[9] = system: oilseed rape (Brassica napus); conditions: Oilseed Rape
Outline: as §1

[10] = system: lambsquarters (Chenopodium album)
Outline: as §1

[11] = system: ragweed (common ragweed, Ambrosia elatior); conditions: Ambrosia artemisiifolia, Ragweed, read-out: Plant response rating; for pest or weed control at 31 g/ha: 31 g ai/ha; for pest or weed control at 62 g/ha: 62 g ai/ha; for pest or weed control at 125 g/ha: 125 g ai/ha
Outline: as §1

[12] = system: oat, wild (wild oat, Avena fatua); conditions: Postemergence
Outline: as §1

[13] = system: galium (catchweed bedstraw, Galium aparine); conditions: Galium, read-out: Plant response rating; for pest or weed control at 62 g/ha: 62 g ai/ha; for pest or weed control at 125 g/ha: 125 g ai/ha; for pest or weed control at 250 g/ha: 250 g ai/ha
Outline: as §1

[14] = post-emergence, Postemergence, 31 g ai/ha

Compound: Cc1cc(=O)n(-c2ccc(C(F)(F)F)cc2)nc1Cc1ccnc(C(F)(F)F)c1 [Compound 2, 5-methyl-2-[4-(trifluoromethyl)phenyl]-6-[[2-(trifluoromethyl)-4-pyridinyl]methyl]-3(2H)-pyridazinone]
- Plant response rating ([1]; Postemergence, 31 g ai/ha): 75
- Plant response rating ([1]; Postemergence, 62 g ai/ha): 75
- Plant response rating ([1]; Postemergence, 125 g ai/ha): 75
- Plant response rating ([1]; Postemergence, 250 g ai/ha): 80
- Plant response rating ([1]; Preemergence, 62 g ai/ha): 100
- Plant response rating ([1]; Preemergence, 125 g ai/ha): 100
- Plant response rating ([1]; Preemergence, 250 g ai/ha): 100
- pest or weed control at 31 g/ha ([2]; post-emergence, Postemergence): 5%
- pest or weed control at 62 g/ha ([2]; post-emergence, Postemergence): 5%
- pest or weed control at 125 g/ha ([2]; post-emergence, Postemergence): 5%
- pest or weed control at 250 g/ha ([2]; post-emergence, Postemergence): 5%
- pest or weed control at 31 g/ha ([2]; pre-emergence, Preemergence): 5%
- pest or weed control at 62 g/ha ([2]; pre-emergence, Preemergence): 15%
- pest or weed control at 125 g/ha ([2]; pre-emergence, Preemergence): 65%
- pest or weed control at 250 g/ha ([2]; pre-emergence, Preemergence): 85%
- Plant response rating ([3]; Postemergence, 31 g ai/ha): 10
- Plant response rating ([3]; Postemergence, 125 g ai/ha): 15
- Plant response rating ([3]; Postemergence, 250 g ai/ha): 15
- Plant response rating ([3]; Preemergence, 31 g ai/ha): 55
- Plant response rating ([3]; Preemergence, 62 g ai/ha): 65
- Plant response rating ([3]; Preemergence, 125 g ai/ha): 85
- Plant response rating ([3]; Preemergence, 250 g ai/ha): 100
- pest or weed control at 31 g/ha [4, 14]: 25%
- pest or weed control at 62 g/ha ([4]; post-emergence, Postemergence): 30%
- pest or weed control at 125 g/ha ([4]; post-emergence, Postemergence): 30%
- pest or weed control at 250 g/ha ([4]; post-emergence, Postemergence): 35%
- pest or weed control at 62 g/ha ([4]; pre-emergence, Preemergence): 40%
- pest or weed control at 125 g/ha ([4]; pre-emergence, Preemergence): 85%
- pest or weed control at 250 g/ha ([4]; pre-emergence, Preemergence): 85%
- pest or weed control at 31 g/ha ([5]; post-emergence, Postemergence): 5%
- pest or weed control at 62 g/ha ([5]; post-emergence, Postemergence): 5%
- pest or weed control at 125 g/ha ([5]; post-emergence, Postemergence): 5%
- pest or weed control at 250 g/ha ([5]; post-emergence, Postemergence, 250 g ai/ha): 10%
- pest or weed control at 31 g/ha ([5]; pre-emergence, Preemergence): 10%
- pest or weed control at 62 g/ha ([5]; pre-emergence, Preemergence): 25%
- pest or weed control at 125 g/ha ([5]; pre-emergence, Preemergence): 35%
- Plant response rating ([6]; 31 g ai/ha): 80
- Plant response rating ([6]; 62 g ai/ha): 85
- Plant response rating ([6]; 125 g ai/ha): 90
- Plant response rating ([6]; 250 g ai/ha): 90
- pest or weed control at 62 g/ha ([7]; post-emergence, Postemergence): 55%
- pest or weed control at 125 g/ha ([7]; post-emergence, Postemergence): 60%
- pest or weed control at 250 g/ha ([7]; post-emergence, Postemergence): 60%
- pest or weed control at 31 g/ha ([7]; pre-emergence, Preemergence, 31 g ai/ha): 100%
- pest or weed control at 62 g/ha ([7]; pre-emergence, Preemergence): 100%
- pest or weed control at 125 g/ha ([7]; pre-emergence, Preemergence): 100%
- pest or weed control at 250 g/ha ([7]; pre-emergence, Preemergence): 100%
- pest or weed control at 31 g/ha ([8]; post-emergence, Postemergence): 10%
- pest or weed control at 62 g/ha ([8]; post-emergence, Postemergence): 10%
- pest or weed control at 125 g/ha ([8]; post-emergence, Postemergence): 25%
- pest or weed control at 250 g/ha ([8]; post-emergence, Postemergence): 25%
- pest or weed control at 31 g/ha ([8]; pre-emergence, Preemergence): 45%
- pest or weed control at 62 g/ha ([8]; pre-emergence, Preemergence): 98%
- pest or weed control at 125 g/ha ([8]; pre-emergence, Preemergence): 100%
- pest or weed control at 250 g/ha ([8]; pre-emergence, Preemergence): 100%
- Plant response rating ([9]; Postemergence, 31 g ai/ha): 5
- Plant response rating ([9]; Postemergence, 62 g ai/ha): 30
- Plant response rating ([9]; Postemergence, 125 g ai/ha): 45
- Plant response rating ([9]; Postemergence, 250 g ai/ha): 50
- Plant response rating ([9]; Preemergence, 31 g ai/ha): 100
- Plant response rating ([9]; Preemergence, 62 g ai/ha): 100
- Plant response rating ([9]; Preemergence, 125 g ai/ha): 100
- Plant response rating ([9]; Preemergence, 250 g ai/ha): 100
- Plant response rating ([10]; Postemergence, 31 g ai/ha): 55
- Plant response rating ([10]; Postemergence, 62 g ai/ha): 70
- Plant response rating ([10]; Postemergence, 125 g ai/ha): 75
- Plant response rating ([10]; Postemergence, 250 g ai/ha): 80
- Plant response rating ([10]; Preemergence, 31 g ai/ha): 100
- Plant response rating ([10]; Preemergence, 62 g ai/ha): 100
- Plant response rating ([10]; Preemergence, 125 g ai/ha): 100
- Plant response rating ([10]; Preemergence, 250 g ai/ha): 100
- pest or weed control at 31 g/ha ([11]; post-emergence, Postemergence): 25%
- pest or weed control at 62 g/ha ([11]; post-emergence, Postemergence): 60%
- pest or weed control at 125 g/ha ([11]; post-emergence, Postemergence): 60%
- pest or weed control at 31 g/ha ([11]; pre-emergence, Preemergence): 15%
- pest or weed control at 62 g/ha ([11]; pre-emergence, Preemergence): 60%
- pest or weed control at 125 g/ha ([11]; pre-emergence, Preemergence): 60%
- pest or weed control at 250 g/ha ([11]; pre-emergence, Preemergence, 250 g ai/ha): 60%
- Plant response rating ([12]; 31 g ai/ha): 5
- Plant response rating ([12]; 62 g ai/ha): 5
- Plant response rating ([12]; 125 g ai/ha): 5
- Plant response rating ([12]; 250 g ai/ha): 5
- pest or weed control at 31 g/ha [13, 14]: 50%
- pest or weed control at 62 g/ha ([13]; post-emergence, Postemergence): 80%
- pest or weed control at 125 g/ha ([13]; post-emergence, Postemergence): 80%
- pest or weed control at 250 g/ha ([13]; post-emergence, Postemergence): 85%
- pest or weed control at 62 g/ha ([13]; pre-emergence, Preemergence): 85%
- pest or weed control at 125 g/ha ([13]; pre-emergence, Preemergence): 98%
- pest or weed control at 250 g/ha ([13]; pre-emergence, Preemergence): 100%
